Among the data in US10150760B2, “Compounds for use in preparing heterocyclic triazole agonists of the APJ receptor” (AMGEN INC., priority 2016, dated 2018) are EC50 values, retold here.

This assay addresses human APJ receptor (Homo sapiens (Human), UniProt P35414). Nature of the assay: [35S]GTPγS binding assay on membranes from CHO cells stably expressing human APJ receptor. It counts as biochemical. Conditions: read-out: Activity hAPJ SPA EC50 IP. Put shortly:
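Membranes from CHO cells stably expressing human APJ incubated with ligand, 0.2 nM [35S]GTPγS and WGA SPA beads in HEPES pH 7.5 with 5 mM MgCl2, 200 mM NaCl, 3 μM GDP, 90 min at RT. Nonspecific binding defined with 100 μM GTPγS; EC50 by non-linear regression.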
(In general: Binding of GTPγS marks nucleotide exchange on a G protein.)

Sequence of human APJ receptor (P35414 whole entry): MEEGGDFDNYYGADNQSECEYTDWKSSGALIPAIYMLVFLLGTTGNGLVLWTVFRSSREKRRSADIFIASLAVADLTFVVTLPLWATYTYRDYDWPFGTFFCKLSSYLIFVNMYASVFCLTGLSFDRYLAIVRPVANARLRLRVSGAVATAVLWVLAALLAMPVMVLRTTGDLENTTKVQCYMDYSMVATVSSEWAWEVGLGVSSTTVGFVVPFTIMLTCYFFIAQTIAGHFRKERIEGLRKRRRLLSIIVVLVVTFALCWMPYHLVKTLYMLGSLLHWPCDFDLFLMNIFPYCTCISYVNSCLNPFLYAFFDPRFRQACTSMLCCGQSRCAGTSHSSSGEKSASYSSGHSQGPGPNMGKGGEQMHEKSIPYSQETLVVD

Regarding `COc1ncnc(OC)c1-n1c(NS(=O)(=O)[C@@H](C)[C@H](OC)c2ncc(Cl)cn2)nnc1[C@H]1CCC(C)(C)O1` (single isomer, unassigned) [Example 138.0, (1R,2S)-1-(5-chloropyrimidin-2-yl)-N-(4-(4,6-dimethoxypyrimidin-5-yl)-5-((S)-5,5-dimethyltetrahydrofuran-2-yl)-4H-1,2,4-triazol-3-yl)-1-methoxypropane-2-sulfonamide or (1R,2S)-1-(5-chloropyrimidin-2-yl)-N-(4-(4,6-dimethoxypyrimidin-5-yl)-5-((R)-5,5-dimethyltetrahydrofuran-2-yl)-4H-1,2,4-triazol-3-yl)-1-methoxypropane-2-sulfonamide], the EC50 (as a rule, the concentration that produces a half-maximal response) was 120 nM. With `COc1cccc(OC)c1-n1c(NS(=O)(=O)[C@@H](C)[C@H](O)c2ncc(C)cn2)nnc1[C@H]1CCOC1` (single isomer, unassigned) [Example 141.0, (1R,2S)-N-(4-(2,6-dimethoxyphenyl)-5-((S)-tetrahydrofuran-3-yl)-4H-1,2,4-triazol-3-yl)-1-hydroxy-1-(5-methylpyrimidin-2-yl)propane-2-sulfonamide or (1R,2S)-N-(4-(2,6-dimethoxyphenyl)-5-((R)-tetrahydrofuran-3-yl)-4H-1,2,4-triazol-3-yl)-1-hydroxy-1-(5-methylpyrimidin-2-yl)propane-2-sulfonamide], the EC50 worked out at 200 nM. The same measure for `COc1cccc(OC)c1-n1c(NS(=O)(=O)CCc2ccc(Cl)cc2)nnc1[C@@H]1CCCO1` (single isomer, unassigned) [Example 144.0, (S)-2-(4-Chlorophenyl)-N-(4-(2,6-dimethoxyphenyl)-5-(tetrahydrofuran-2-yl)-4H-1,2,4-triazol-3-yl)ethanesulfonamide or (R)-2-(4-chlorophenyl)-N-(4-(2,6-dimethoxyphenyl)-5-(tetrahydrofuran-2-yl)-4H-1,2,4-triazol-3-yl)ethanesulfonamide]: 80 nM; for `COc1cccc(OC)c1-n1c(NS(=O)(=O)CCc2ccc(Cl)cc2)nnc1[C@@H]1CCCO1` (single isomer, unassigned) [Example 145.0, (S)-2-(4-Chlorophenyl)-N-(4-(2,6-dimethoxyphenyl)-5-(tetrahydrofuran-2-yl)-4H-1,2,4-triazol-3-yl)ethanesulfonamide or (R)-2-(4-chlorophenyl)-N-(4-(2,6-dimethoxyphenyl)-5-(tetrahydrofuran-2-yl)-4H-1,2,4-triazol-3-yl)ethanesulfonamide]: 830 nM. The same measure for `COc1cccc(OC)c1-n1c(NS(=O)(=O)CCc2ccc(F)cc2C#N)nnc1[C@@H]1CCCO1` (single isomer, unassigned) [Example 147.0, (S)-2-(2-Cyano-4-fluorophenyl)-N-(4-(2,6-dimethoxyphenyl)-5-(tetrahydrofuran-2-yl)-4H-1,2,4-triazol-3-yl)ethanesulfonamide or (R)-2-(2-cyano-4-fluorophenyl)-N-(4-(2,6-dimethoxyphenyl)-5-(tetrahydrofuran-2-yl)-4H-1,2,4-triazol-3-yl)ethanesulfonamide]: 37 nM; for `COc1cccc(OC)c1-n1c(NS(=O)(=O)CCc2ccc(F)cc2C#N)nnc1[C@@H]1CCCO1` (single isomer, unassigned) [Example 148.0, (S)-2-(2-Cyano-4-fluorophenyl)-N-(4-(2,6-dimethoxyphenyl)-5-(tetrahydrofuran-2-yl)-4H-1,2,4-triazol-3-yl)ethanesulfonamide or (R)-2-(2-cyano-4-fluorophenyl)-N-(4-(2,6-dimethoxyphenyl)-5-(tetrahydrofuran-2-yl)-4H-1,2,4-triazol-3-yl)ethanesulfonamide]: 680 nM; for `COc1cccc(OC)c1-n1c(NS(=O)(=O)[C@@H](C)[C@H](C)c2ncc(C#N)cn2)nnc1[C@H]1CCOC1` (single isomer, unassigned) [Example 173.0, (2S,3R)-3-(5-cyano-2-pyrimidin-yl)-N-(4-(2,6-dimethoxyphenyl)-5-((3R)-tetrahydro-3-furanyl)-4H-1,2,4-triazol-3-yl)-2-butanesulfonamide or (2S,3R)-3-(5-cyano-2-pyrimidinyl)-N-(4-(2,6-dimethoxyphenyl)-5-((3S)-tetrahydro-3-furanyl)-4H-1,2,4-triazol-3-yl)-2-butanesulfonamide]: 130 nM. For `COc1cccc(OC)c1-n1c(NS(=O)(=O)[C@@H](C)[C@H](C)c2ncc(C#N)cn2)nnc1[C@H]1CCOC1` (single isomer, unassigned) [Example 174.0, (2S,3R)-3-(5-cyano-2-pyrimidin-yl)-N-(4-(2,6-dimethoxyphenyl)-5-((3R)-tetrahydro-3-furanyl)-4H-1,2,4-triazol-3-yl)-2-butanesulfonamide or (2S,3R)-3-(5-cyano-2-pyrimidinyl)-N-(4-(2,6-dimethoxyphenyl)-5-((3S)-tetrahydro-3-furanyl)-4H-1,2,4-triazol-3-yl)-2-butanesulfonamide] the value was 210 nM. As for `COc1cnc([C@@H](C)[C@H](C)S(=O)(=O)Nc2nnc([C@@H]3COCCO3)n2-c2c(OC)cccc2OC)nc1` (single isomer, unassigned) [Example 175.0, (2S,3R)-N-(4-(2,6-dimethoxyphenyl)-5-((2R)-1,4-dioxan-2-yl)-4H-1,2,4-triazol-3-yl)-3-(5-methoxy-2-pyrimidinyl)-2-butanesulfonamide or (2S,3R)-N-(4-(2,6-dimethoxyphenyl)-5-((2S)-1,4-dioxan-2-yl)-4H-1,2,4-triazol-3-yl)-3-(5-methoxy-2-pyrimidinyl)-2-butanesulfonamide], the EC50 came to 3.5 nM. The same measure for `COc1cnc([C@@H](C)[C@H](C)S(=O)(=O)Nc2nnc([C@@H]3COCCO3)n2-c2c(OC)cccc2OC)nc1` (single isomer, unassigned) [Example 176.0, (2S,3R)-N-(4-(2,6-dimethoxyphenyl)-5-((2R)-1,4-dioxan-2-yl)-4H-1,2,4-triazol-3-yl)-3-(5-methoxy-2-pyrimidinyl)-2-butanesulfonamide or (2S,3R)-N-(4-(2,6-dimethoxyphenyl)-5-((2S)-1,4-dioxan-2-yl)-4H-1,2,4-triazol-3-yl)-3-(5-methoxy-2-pyrimidinyl)-2-butanesulfonamide]: 34 nM; for `COc1cnc([C@@H](C)[C@H](C)S(=O)(=O)Nc2nnc([C@@H]3COCCO3)n2-c2c(OC)ncnc2OC)nc1` (single isomer, unassigned) [Example 177.0, (2S,3R)-N-(4,-(4,6-dimethoxy-5-pyrimidinyl)-5-((2R)-1,4-dioxan-2-yl)-4H-1,2,4-triazol-3-yl)-3-(5-methoxy-2-pyrimidinyl)-2-butanesulfonamide or (2S,3R)-N-(4-(4,6-dimethoxy-5-pyrimidinyl)-5-((2S)-1,4-dioxan-2-yl)-4H-1,2,4-triazol-3-yl)-3-(5-methoxy-2-pyrimidinyl)-2-butanesulfonamide]: 95 nM; for `COc1cnc([C@@H](C)[C@H](C)S(=O)(=O)Nc2nnc([C@@H]3COCCO3)n2-c2c(OC)ncnc2OC)nc1` (single isomer, unassigned) [Example 178.0, (2S,3R)-N-(4-(4,6-dimethoxy-5-pyrimidinyl)-5-((2R)-1,4-dioxan-2-yl)-4H-1,2,4-triazol-3-yl)-3-(5-methoxy-2-pyrimidinyl)-2-butanesulfonamide or (2S,3R)-N-(4-(4,6-dimethoxy-5-pyrimidinyl)-5-((2S)-1,4-dioxan-2-yl)-4H-1,2,4-triazol-3-yl)-3-(5-methoxy-2-pyrimidinyl)-2-butanesulfonamide]: 290 nM.
